Laboratory results from ChEMBL document CHEMBL1201862, “PubChem BioAssay data set” (2004).
Activity calls are given as the source filed them.

Experiments:
[1] = biological target: T1, Tyrosine-protein phosphatase non-receptor type 22 (Homo sapiens, UniProt Q9Y2R2); type: functional
T1 sequence (Q9Y2R2 whole entry): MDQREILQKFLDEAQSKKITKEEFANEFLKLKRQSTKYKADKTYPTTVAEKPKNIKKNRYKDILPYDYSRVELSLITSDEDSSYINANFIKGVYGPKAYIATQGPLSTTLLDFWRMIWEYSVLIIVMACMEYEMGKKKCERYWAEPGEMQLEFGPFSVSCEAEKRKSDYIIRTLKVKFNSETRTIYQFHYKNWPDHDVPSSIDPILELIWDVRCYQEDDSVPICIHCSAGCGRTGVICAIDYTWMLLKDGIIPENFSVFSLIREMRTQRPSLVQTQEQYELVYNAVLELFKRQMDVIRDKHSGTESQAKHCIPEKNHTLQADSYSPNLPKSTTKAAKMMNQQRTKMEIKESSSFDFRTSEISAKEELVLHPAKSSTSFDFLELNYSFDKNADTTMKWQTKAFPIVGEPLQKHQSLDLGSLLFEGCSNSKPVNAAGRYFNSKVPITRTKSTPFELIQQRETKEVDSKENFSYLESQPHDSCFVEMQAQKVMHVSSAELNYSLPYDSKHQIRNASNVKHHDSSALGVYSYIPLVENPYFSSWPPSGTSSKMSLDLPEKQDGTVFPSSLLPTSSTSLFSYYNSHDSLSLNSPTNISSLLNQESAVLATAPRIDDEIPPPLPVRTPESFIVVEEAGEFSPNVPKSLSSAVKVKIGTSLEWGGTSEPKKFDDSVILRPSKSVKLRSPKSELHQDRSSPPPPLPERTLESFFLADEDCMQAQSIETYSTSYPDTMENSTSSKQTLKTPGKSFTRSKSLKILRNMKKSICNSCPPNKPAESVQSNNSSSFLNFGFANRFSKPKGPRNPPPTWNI

[2] = biological target: T1, Tyrosine-protein phosphatase non-receptor type 22; type: functional; remark: listed apart in the source
[3] = biological target: T2, Tyrosine-protein phosphatase non-receptor type 7 (Homo sapiens, UniProt P35236); type: functional
T2 sequence (P35236 whole entry): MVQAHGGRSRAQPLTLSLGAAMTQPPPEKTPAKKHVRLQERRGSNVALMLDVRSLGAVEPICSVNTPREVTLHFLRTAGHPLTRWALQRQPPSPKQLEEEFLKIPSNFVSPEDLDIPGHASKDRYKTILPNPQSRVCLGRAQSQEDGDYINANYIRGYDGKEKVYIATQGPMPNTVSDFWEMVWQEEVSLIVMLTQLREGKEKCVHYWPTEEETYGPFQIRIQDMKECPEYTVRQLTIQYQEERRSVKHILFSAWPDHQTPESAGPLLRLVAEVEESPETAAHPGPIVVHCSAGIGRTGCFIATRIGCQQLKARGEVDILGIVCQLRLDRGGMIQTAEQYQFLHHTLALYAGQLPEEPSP

[4] = biological target: T3, Kappa-type opioid receptor (Homo sapiens, UniProt P41145); type: functional
T3 sequence (P41145 whole entry): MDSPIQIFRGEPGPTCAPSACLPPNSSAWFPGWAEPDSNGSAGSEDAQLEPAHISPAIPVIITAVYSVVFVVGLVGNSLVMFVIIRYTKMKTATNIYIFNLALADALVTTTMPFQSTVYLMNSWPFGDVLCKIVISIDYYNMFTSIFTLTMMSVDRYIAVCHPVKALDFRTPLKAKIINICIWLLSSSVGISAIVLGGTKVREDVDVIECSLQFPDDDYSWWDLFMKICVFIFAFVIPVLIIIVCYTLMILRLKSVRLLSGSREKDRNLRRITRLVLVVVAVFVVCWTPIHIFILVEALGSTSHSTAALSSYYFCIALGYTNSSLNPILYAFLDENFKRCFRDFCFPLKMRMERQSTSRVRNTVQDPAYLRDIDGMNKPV

Vero [5] = assay: cells; type: functional; conditions: Chlorocebus sabaeus
Beta-galactosidase = Beta-galactosidase (Escherichia coli, UniProt Q8VNN2); type: functional
Sequence of Beta-galactosidase (Q8VNN2 whole entry): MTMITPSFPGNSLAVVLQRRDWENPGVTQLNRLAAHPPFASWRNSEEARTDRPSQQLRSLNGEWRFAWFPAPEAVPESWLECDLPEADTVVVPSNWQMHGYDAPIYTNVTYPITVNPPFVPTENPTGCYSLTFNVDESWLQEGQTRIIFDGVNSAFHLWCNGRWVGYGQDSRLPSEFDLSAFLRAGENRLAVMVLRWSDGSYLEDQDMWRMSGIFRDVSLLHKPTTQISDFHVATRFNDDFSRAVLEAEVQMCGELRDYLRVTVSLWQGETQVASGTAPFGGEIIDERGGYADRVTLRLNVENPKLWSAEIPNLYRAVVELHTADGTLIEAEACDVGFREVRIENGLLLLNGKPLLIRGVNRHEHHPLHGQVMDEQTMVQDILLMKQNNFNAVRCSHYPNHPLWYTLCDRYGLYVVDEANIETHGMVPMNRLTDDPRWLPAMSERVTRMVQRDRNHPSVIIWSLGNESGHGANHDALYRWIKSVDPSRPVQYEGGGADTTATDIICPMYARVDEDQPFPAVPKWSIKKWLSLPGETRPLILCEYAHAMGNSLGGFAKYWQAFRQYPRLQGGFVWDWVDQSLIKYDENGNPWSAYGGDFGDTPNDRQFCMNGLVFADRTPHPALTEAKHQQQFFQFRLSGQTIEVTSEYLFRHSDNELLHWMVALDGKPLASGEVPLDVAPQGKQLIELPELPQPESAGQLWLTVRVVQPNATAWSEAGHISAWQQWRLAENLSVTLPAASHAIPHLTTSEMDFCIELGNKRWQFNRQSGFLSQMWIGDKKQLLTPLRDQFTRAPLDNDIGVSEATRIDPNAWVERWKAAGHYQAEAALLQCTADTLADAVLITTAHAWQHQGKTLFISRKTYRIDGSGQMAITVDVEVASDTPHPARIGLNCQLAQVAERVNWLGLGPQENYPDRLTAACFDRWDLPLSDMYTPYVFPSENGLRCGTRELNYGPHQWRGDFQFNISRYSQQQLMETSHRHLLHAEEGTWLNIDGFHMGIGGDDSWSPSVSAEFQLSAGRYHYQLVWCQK

[6] = biological target: T4, Delta-type opioid receptor (Homo sapiens, UniProt P41143); assay: HTS Image-Based Screen for Agonists of the DOR Receptor. [Related pubchem assays (depositor defined):AID1777, AID1786, AID2133]; type: functional
T4 sequence (P41143 whole entry): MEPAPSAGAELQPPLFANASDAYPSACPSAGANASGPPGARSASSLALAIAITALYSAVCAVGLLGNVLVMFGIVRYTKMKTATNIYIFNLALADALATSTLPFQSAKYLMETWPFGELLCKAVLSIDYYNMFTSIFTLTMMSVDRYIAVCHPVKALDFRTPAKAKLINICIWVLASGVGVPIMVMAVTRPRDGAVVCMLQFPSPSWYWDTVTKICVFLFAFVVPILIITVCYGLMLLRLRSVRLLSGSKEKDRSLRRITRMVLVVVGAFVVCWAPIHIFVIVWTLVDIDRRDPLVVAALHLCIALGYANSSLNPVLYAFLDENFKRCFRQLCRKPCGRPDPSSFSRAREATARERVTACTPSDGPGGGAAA

[7] = biological target: T3, Kappa-type opioid receptor; type: functional; remark: listed apart in the source
[8] = biological target: T4, Delta-type opioid receptor; assay: HTS Image-Based Screen for Antagonists of the DOR Receptor. [Related pubchem assays (depositor defined):AID1777, AID1785, AID1786, AID2133]; type: functional
[9] = biological target: T5, Rac GTPase-activating protein 1 (Homo sapiens, UniProt Q9H0H5); assay: MgcRacGAP GTPase-activating activity inhibitors, confirmation, biochemical, ADP Hunter fluorescence, primary and confirmatory (AID 624330); type: functional
T5 sequence (Q9H0H5 whole entry): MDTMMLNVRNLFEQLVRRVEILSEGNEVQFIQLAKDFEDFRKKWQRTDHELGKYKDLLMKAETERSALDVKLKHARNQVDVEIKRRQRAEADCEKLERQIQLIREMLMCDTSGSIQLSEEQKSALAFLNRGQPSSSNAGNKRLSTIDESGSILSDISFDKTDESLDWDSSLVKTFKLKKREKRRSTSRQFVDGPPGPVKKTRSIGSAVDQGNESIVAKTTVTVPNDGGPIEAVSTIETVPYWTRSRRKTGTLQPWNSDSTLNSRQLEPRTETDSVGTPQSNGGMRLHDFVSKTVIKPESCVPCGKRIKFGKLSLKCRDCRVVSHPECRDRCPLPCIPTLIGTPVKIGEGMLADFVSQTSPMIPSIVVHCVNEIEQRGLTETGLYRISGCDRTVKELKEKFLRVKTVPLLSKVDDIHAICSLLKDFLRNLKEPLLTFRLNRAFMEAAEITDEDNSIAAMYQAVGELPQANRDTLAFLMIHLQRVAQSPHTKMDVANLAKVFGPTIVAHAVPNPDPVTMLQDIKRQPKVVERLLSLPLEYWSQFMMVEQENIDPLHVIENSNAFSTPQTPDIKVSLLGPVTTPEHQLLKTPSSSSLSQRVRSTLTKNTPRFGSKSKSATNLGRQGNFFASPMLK

Mu-type opioid receptor = Mu-type opioid receptor (Homo sapiens, UniProt P35372); assay: HTS Image-Based Screen for Agonists of the MOR Receptor. [Related pubchem assays (depositor defined):AID1777, AID1785, AID1786, AID2133]; type: functional;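 note: imaging of beta-arrestin GFP recruitment into spots after receptor activation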
Sequence of Mu-type opioid receptor (P35372 whole entry): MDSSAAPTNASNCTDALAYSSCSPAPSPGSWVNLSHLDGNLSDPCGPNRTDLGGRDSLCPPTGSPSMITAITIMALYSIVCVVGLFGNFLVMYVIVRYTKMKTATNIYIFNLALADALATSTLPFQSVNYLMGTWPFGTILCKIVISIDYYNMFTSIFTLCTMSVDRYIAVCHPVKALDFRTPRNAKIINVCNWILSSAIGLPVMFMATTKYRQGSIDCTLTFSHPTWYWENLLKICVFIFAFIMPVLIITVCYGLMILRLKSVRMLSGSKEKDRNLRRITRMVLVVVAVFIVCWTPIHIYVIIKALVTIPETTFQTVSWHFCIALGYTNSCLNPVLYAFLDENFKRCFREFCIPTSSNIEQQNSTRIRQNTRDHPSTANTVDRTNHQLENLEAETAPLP

Vero [10] = assay: cells; type: functional, cell-based; conditions: Chlorocebus sabaeus
[11] = Luminescence Cell-Based Dose Response HTS to Identify Activators of Luciferase Translation or Activity in H4 […] Cells. [Related pubchem assays: 1829 (Project Summary), 1814 (Primary HTS)]; type: functional
H4 = assay: Luminescence Cell-Based Dose Response HTS to Identify Activators of 5'UTR Stem-Loop Driven Prion Protein mRNA Translation in H4 Neuroglioblastoma Cells. [Related pubchem assays: 1829 (Project Summary), 1814 (Primary HTS)]; type: functional; conditions: Homo sapiens
[12] = biological target: Sphingosine 1-phosphate receptor 4 (Homo sapiens, UniProt O95977); assay: Fluorescence dose response cell-based high throughput screening assay for agonists of the Sphingosine 1-Phosphate Receptor 4 (S1P4). [Related pubchem assays: 1509 (Primary screen.), 1523 (Confirmation screen in triplicates.)]; type: functional
Sequence of Sphingosine 1-phosphate receptor 4 (O95977 whole entry): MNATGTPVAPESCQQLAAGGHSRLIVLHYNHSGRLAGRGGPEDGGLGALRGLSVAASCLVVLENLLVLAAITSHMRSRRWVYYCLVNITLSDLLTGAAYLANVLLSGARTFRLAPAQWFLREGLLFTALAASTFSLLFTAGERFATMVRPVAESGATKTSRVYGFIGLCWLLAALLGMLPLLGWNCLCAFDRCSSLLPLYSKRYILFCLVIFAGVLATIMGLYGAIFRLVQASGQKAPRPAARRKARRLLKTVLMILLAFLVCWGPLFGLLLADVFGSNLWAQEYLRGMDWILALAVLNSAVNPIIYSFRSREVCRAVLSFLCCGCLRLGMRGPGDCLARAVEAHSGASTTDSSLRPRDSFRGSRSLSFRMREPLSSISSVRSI

[13] = biological target: Sphingosine 1-phosphate receptor 1 (Homo sapiens, UniProt P21453); assay: Fluorescence-based counterscreen assay for S1P4 agonists: Cell-based dose response high throughput screening assay to identify agonists of the Sphingosine 1-Phosphate Receptor 1 (S1P1). [Related pubchem assays (depositor defined):AID1509, AID1523, AID1801, AID463107, AID463118, AID463119, AID463122, AID463123, AID463129, AID463225, AID504400, AID504460]; type: functional
Sequence of Sphingosine 1-phosphate receptor 1 (P21453 whole entry): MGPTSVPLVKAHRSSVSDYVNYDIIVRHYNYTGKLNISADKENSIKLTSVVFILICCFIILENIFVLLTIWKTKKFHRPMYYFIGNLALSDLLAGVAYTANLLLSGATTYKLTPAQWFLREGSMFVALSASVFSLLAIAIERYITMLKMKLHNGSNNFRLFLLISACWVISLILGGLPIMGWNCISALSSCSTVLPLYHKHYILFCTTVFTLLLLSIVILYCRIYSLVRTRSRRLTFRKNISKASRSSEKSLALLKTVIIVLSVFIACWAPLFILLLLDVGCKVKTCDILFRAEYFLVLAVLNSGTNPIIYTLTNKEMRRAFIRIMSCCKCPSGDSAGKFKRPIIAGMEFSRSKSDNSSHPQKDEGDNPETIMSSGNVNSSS

[14] = Luminescence Cell-Based Dose Confirmation HTS to Identify Activators of 5'UTR Stem-Loop Driven Alpha-Synuclein mRNA Translation in H4 Neuroglioblastoma Cells. [Related pubchem assays: 1829 (Project Summary), 1814 (Primary HTS)]; type: functional

COc1ccc(C2SCC(=O)N2CCCN(C)C)cc1 (configuration not stated)
IC50 [1]: > 79.4 µM (inactive)
IC50 [2]: > 79.4 µM (inactive)
IC50 [3]: > 79.4 µM (inactive)

COc1cc(/C=C/c2ccc3cccc(O)c3n2)ccc1O
IC50 [4]: 11.9 µM (active)
CC50 (Vero [5]): 12.4 µM (active)
EC50 (Beta-galactosidase): > 31.5 µM (inactive)
EC50 [6]: > 32 µM (inactive)
IC50 [7]: > 32 µM
IC50 [8]: > 32 µM (inactive)
IC50 [9]: 72.4 µM (active)
EC50 (Mu-type opioid receptor): > 32 µM (inactive)
IC50 (Vero [10]): > 25 µM (active)

CC(=O)Oc1ccc2cc(-c3nc4ccccc4n3C)c(=O)oc2c1
EC50 [11]: 53.2 µM (active)
EC50 (H4): 4.66 µM (active)
EC50 [12]: 191 µM (not active)
EC50 [13]: > 49.8 µM (inactive)
EC50 [14]: 94.4 µM (active)
